Test results from US20040053345A1, “Marker for probing the therapeutic efficacy of drugs” (priority 2002, published 2004).
Entries after “also recorded” stand apart in the source; their conditions may differ.

Key:
breast cancer [1] = conditions: ER-positive patients, tamoxifen administered for 5 years; cited from earlier work
breast cancer [2] = experiment: Menin expression in breast cancer tissues (immunohistological staining) versus recurrence under tamoxifen; type: in vivo, human
Experimental: Thin slices (4 μm) were prepared from breast cancer tissues embedded with paraffin. After removing paraffin, the microwave treatment was carried out (5 min×3) in citrate buffer. After cooling at room temperature, the endogenous peroxidase activity was inhibited using an aqueous 0.3% hydrogen peroxide solution. Next, blocking was performed with 6 drops of 5% bovine albumin (Sigma) for one hour, and then the anti-menin antibody (Santa Cruz) (first antibody capable of immunohistological staining) was reacted overnight (8 hours). After washing, the second antibody and 6 drops of Envision+ (Dako) wherein HRP was conjugated with polymers were reacted for one hour.
After 100 mg of a coloring agent, DAB (Dojindo), was thoroughly mixed in 150 ml of PBS, the slice was immersed in a solution containing 75 μl of 30% hydrogen peroxide (0.5 μl/ml) for 1 min, and immediately immersed into and washed with tap water. After the dehydration treatment, the slice was enclosed with a cover glass, and observed by a microscopy. The specimen where menin-positive cells with brown-colored nuclei were 50% or more of total cells was determined to be menin-positive.

[3] = test system: estrogen receptor (ER) transcription activity; experiment: Reporter gene assay with ERE-Luc in menin-transfected cells in the presence of tamoxifen; type: cell-based, human; conditions: MCF-7 cells co-transfected with menin expression vector and ERE-Luc; 1 μM tamoxifen; 24 hours
Experimental: The cells were cultured in DMEM (ICN) medium to which 10% fetal calf serum (ICN) was supplemented.
Full-length menin cDNA was amplified by RT-PCR, and inserted into an expression vector, pcDNA3 (Invitrogen). The menin cDNA was identified by sequencing. The mutation (569delC) was introduced with a site-directed mutagenesis kit (Promega) to produce a variant menin.
The menin expression vector and the reporter gene (ERE-Luc) were co-transfected into MCF-7 cells according to the liposome method. Similarly, the menin expression vector, CMV-ERA and the reporter gene (ERE-Luc) were co-transfected. into COS-7 cells according to the liposome method. After culturing for 24 hours, the proteins were extracted from cells and assayed for their luciferase activity. The extracted proteins were measured for their protein concentration and β-galactosidase activity wherein β-galactosidase was co-transfected and the introduction efficiency was calibrated. Similar experiments were carried out with addition of 1 μM tamoxifen to the same system.

In the case of `CC/C(=C(\c1ccccc1)c1ccc(OCCN(C)C)cc1)c1ccccc1` [tamoxifen], the “recurrence rate relative to that in non-administered patients” value (breast cancer [1]) is given as 50%, the cancer recurrence (breast cancer [2]; 5 menin-positive cases, tamoxifen administered in 3 cases) is given as 4 cases and the cancer recurrence (breast cancer [2]; menin-negative patient cases (3 of 10) administered tamoxifen) is given as “no recurrence”. The “inhibition of luciferase activity (ER transcription activity)” value [3] was “not inhibited; also recorded: no suppressive effect”.
